# From ChEMBL document CHEMBL3885881, “DrugMatrix”
# Species: Rattus norvegicus
# Assay: DrugMatrix - Regimen: Daily Repeat
# Assay type: toxicity, organism-based, Sprague-Dawley
# Set-up: regimen Daily Repeat, gender Male, age 6-8 weeks
# Details: in vivo, po, route oral GAVAGE, vehicle 100 % WATER; for ABSOLUTE BASOPHIL / ABSOLUTE EOSINOPHIL / ABSOLUTE LYMPHOCYTE / ABSOLUTE MONOCYTE / ABSOLUTE SEGMENTED NEUTROPHIL / BASOPHIL / EOSINOPHIL / ERYTHROCYTE COUNT / HEMATOCRIT / HEMOGLOBIN / LEUKOCYTE COUNT / LYMPHOCYTE / MEAN CORPUSCULAR HEMOGLOBIN / MEAN CORPUSCULAR HEMOGLOBIN CONCENTRATION / MONOCYTE / NEUTROPHIL / NUCLEATED RED BLOOD CELLS / PLATELET COUNT: tissue Blood; for ALANINE AMINOTRANSFERASE / ALBUMIN / ALKALINE PHOSPHATASE / BLOOD UREA NITROGEN / CARBON DIOXIDE / CHLORIDE / CHOLESTEROL / CREATINE PHOSPHOKINASE / CREATININE / GLUCOSE / LACTATE DEHYDROGENASE / LIPASE / PHOSPHORUS / POTASSIUM / SODIUM / TOTAL BILIRUBIN / TOTAL PROTEIN / URIC ACID: tissue Plasma
# [1] = 15 mg/kg, 120 h, dose level Low, time 5 day
# [2] = 150 mg/kg, 72 h, dose level High, time 3 day
# [3] = 150 mg/kg, 120 h, dose level High, time 5 day
structure (smiles),measurement,setting,value
Cc1ccc(NC(=O)c2ccc(CN3CCN(C)CC3)cc2)cc1Nc1nccc(-c2cccnc2)n1 [IMATINIB],ABSOLUTE BASOPHIL,[1],0 CELLS/uL
same,ABSOLUTE EOSINOPHIL,[1],72.33 CELLS/uL
same,ABSOLUTE LYMPHOCYTE,[1],6282 CELLS/uL
same,ABSOLUTE MONOCYTE,[1],25.33 CELLS/uL
same,ABSOLUTE SEGMENTED NEUTROPHIL,[1],653.67 CELLS/uL
same,BASOPHIL,[1],0%
same,EOSINOPHIL,[1],1%
same,ERYTHROCYTE COUNT,[1],5.21 x10E6/uL
same,HEMATOCRIT,[1],33.07%
same,HEMOGLOBIN,[1],12.73 G/DL
same,LEUKOCYTE COUNT,[1],7.03 x10E3/uL
same,LYMPHOCYTE,[1],89.67%
same,MEAN CORPUSCULAR HEMOGLOBIN,[1],24.43 pg
same,MEAN CORPUSCULAR HEMOGLOBIN CONCENTRATION,[1],38.53 G/DL
same,MONOCYTE,[1],0.33%
same,NEUTROPHIL,[1],9%
same,NUCLEATED RED BLOOD CELLS,[1],0 /100WBC
same,PLATELET COUNT,[1],1004.67 x10E3/uL
same,ALANINE AMINOTRANSFERASE,[1],55.67 u/L
same,ALBUMIN,[1],4.2 G/DL
same,ALKALINE PHOSPHATASE,[1],357.67 u/L
same,BLOOD UREA NITROGEN,[1],14.67 mg/dL
same,CARBON DIOXIDE,[1],28 mmol/L
same,CHLORIDE,[1],100.33 MEQ/L
same,CHOLESTEROL,[1],60 mg/dL
same,CREATINE PHOSPHOKINASE,[1],404.33 u/L
same,CREATININE,[1],0.17 mg/dL
same,GLUCOSE,[1],140.33 mg/dL
same,LACTATE DEHYDROGENASE,[1],183.67 u/L
same,LIPASE,[1],8 u/L
same,PHOSPHORUS,[1],11.1 mg/dL
same,POTASSIUM,[1],5.69 MEQ/L
same,SODIUM,[1],145.7 MEQ/L
same,TOTAL BILIRUBIN,[1],0.3 mg/dL
same,TOTAL PROTEIN,[1],6 G/DL
same,URIC ACID,[1],0.73 mg/dL
same,ABSOLUTE BASOPHIL,[2],0 CELLS/uL
same,ABSOLUTE EOSINOPHIL,[2],64 CELLS/uL
same,ABSOLUTE LYMPHOCYTE,[2],9025.33 CELLS/uL
same,ABSOLUTE MONOCYTE,[2],0 CELLS/uL
same,ABSOLUTE SEGMENTED NEUTROPHIL,[2],844 CELLS/uL
same,BASOPHIL,[2],0%
same,EOSINOPHIL,[2],0.67%
same,ERYTHROCYTE COUNT,[2],5.45 x10E6/uL
same,HEMATOCRIT,[2],34.93%
same,HEMOGLOBIN,[2],13 G/DL
same,LEUKOCYTE COUNT,[2],9.93 x10E3/uL
same,LYMPHOCYTE,[2],90.33%
same,MEAN CORPUSCULAR HEMOGLOBIN,[2],23.83 pg
same,MEAN CORPUSCULAR HEMOGLOBIN CONCENTRATION,[2],37.2 G/DL
same,MONOCYTE,[2],0%
same,NEUTROPHIL,[2],9%
same,NUCLEATED RED BLOOD CELLS,[2],0 /100WBC
same,PLATELET COUNT,[2],1243.33 x10E3/uL
same,ALANINE AMINOTRANSFERASE,[2],86 u/L
same,ALBUMIN,[2],4.3 G/DL
same,ALKALINE PHOSPHATASE,[2],449.67 u/L
same,BLOOD UREA NITROGEN,[2],14.67 mg/dL
same,CARBON DIOXIDE,[2],26.33 mmol/L
same,CHLORIDE,[2],105.33 MEQ/L
same,CHOLESTEROL,[2],61.33 mg/dL
same,CREATINE PHOSPHOKINASE,[2],205.67 u/L
same,CREATININE,[2],0.17 mg/dL
same,GLUCOSE,[2],154 mg/dL
same,LACTATE DEHYDROGENASE,[2],135.33 u/L
same,LIPASE,[2],9 u/L
same,PHOSPHORUS,[2],11 mg/dL
same,POTASSIUM,[2],5.83 MEQ/L
same,SODIUM,[2],145.03 MEQ/L
same,TOTAL BILIRUBIN,[2],0.23 mg/dL
same,TOTAL PROTEIN,[2],5.97 G/DL
same,URIC ACID,[2],1.3 mg/dL
same,ABSOLUTE BASOPHIL,[3],0 CELLS/uL
same,ABSOLUTE EOSINOPHIL,[3],37 CELLS/uL
same,ABSOLUTE LYMPHOCYTE,[3],11284 CELLS/uL
same,ABSOLUTE MONOCYTE,[3],0 CELLS/uL
same,ABSOLUTE SEGMENTED NEUTROPHIL,[3],1012.33 CELLS/uL
same,BASOPHIL,[3],0%
same,EOSINOPHIL,[3],0.33%
same,ERYTHROCYTE COUNT,[3],5.01 x10E6/uL
same,HEMATOCRIT,[3],32.5%
same,HEMOGLOBIN,[3],12.27 G/DL
same,LEUKOCYTE COUNT,[3],12.33 x10E3/uL
same,LYMPHOCYTE,[3],91.33%
same,MEAN CORPUSCULAR HEMOGLOBIN,[3],24.53 pg
same,MEAN CORPUSCULAR HEMOGLOBIN CONCENTRATION,[3],37.73 G/DL
same,MONOCYTE,[3],0%
same,NEUTROPHIL,[3],8.33%
same,NUCLEATED RED BLOOD CELLS,[3],0 /100WBC
same,PLATELET COUNT,[3],1206.67 x10E3/uL
same,ALANINE AMINOTRANSFERASE,[3],77.33 u/L
same,ALBUMIN,[3],4.37 G/DL
same,ALKALINE PHOSPHATASE,[3],359.33 u/L
same,BLOOD UREA NITROGEN,[3],17.33 mg/dL
same,CARBON DIOXIDE,[3],27.33 mmol/L
same,CHLORIDE,[3],100 MEQ/L
same,CHOLESTEROL,[3],49.67 mg/dL
same,CREATINE PHOSPHOKINASE,[3],251 u/L
same,CREATININE,[3],0.21 mg/dL
same,GLUCOSE,[3],162 mg/dL
same,LACTATE DEHYDROGENASE,[3],163.67 u/L
same,LIPASE,[3],9 u/L
same,PHOSPHORUS,[3],10.77 mg/dL
same,POTASSIUM,[3],5.96 MEQ/L
same,SODIUM,[3],141.83 MEQ/L
same,TOTAL BILIRUBIN,[3],0.2 mg/dL
same,TOTAL PROTEIN,[3],5.9 G/DL
same,URIC ACID,[3],1.47 mg/dL
